Laboratory results reported in patent US20260124184A1, “ONCE DAILY ALDOSTERONE SYNTHASE INHIBITOR (R)-(+)-5-(P-CYANOPHENYL)-5,6,7,8-TETRAHYDROIMIDAZO[L,5-A]PYRIDINE” (priority 2022, published 2026).
Like-named read-outs stand apart in the source and are kept apart here.

Tests used:
[1] = system: patients with primary aldosteronism; settings: for plasma potassium concentration, mean: all doses QD
Method: (§1) A double-blind, randomized, Phase 2 trial was conducted between November 2019 and June 2022 at 11 centres in Italy, Switzerland and the Netherlands (NCT04007406). […] Patients requiring fixed-dose antihypertensive therapy continued treatment throughout the study; steroid therapies, β-adrenergic and renin-angiotensin-aldosterone system blockers were not permitted. At 14-day intervals, office blood pressures were recorded and blood samples were taken for measurement of steroid and peptide hormones and electrolytes at a central laboratory.

[2] = system: patients with primary aldosteronism
Method: as §1
Plasma aldosterone and plasma renin concentration were measured centrally under GCP regulations using the Liaison® chemiluminescent immunoassay kit supplied by DiaSorin S.p.A. Italy. The system used specific monoclonal antibodies to prevent cross reactions with other major potential reactants in the serum samples. The monoclonal antibodies directed against specific epitopes of the renin molecule allowed accurate and sensitive quantification. The assays were performed according to the instructions provided by the manufacturer. […] The analytical sensitivity was <0.97 ng/ml. […] The analytical sensitivity was <0.53 IU/mL.

Substance: (R)-(+)-5-(p-cyanophenyl)-5,6,7,8-tetrahydroimidazolium[1,5-a]pyridine dihydrogen phosphate [dexfadrostat phosphate]
- plasma potassium concentration, mean ([1]; baseline ≤3.0 mmol/L despite potassium supplements, Day 1 (baseline)): 3.2 mmol/L
- plasma potassium concentration, mean ([1]; baseline ≤3.0 mmol/L despite potassium supplements, Day 14): 4.0 mmol/L
- plasma potassium concentration, mean ([1]; baseline ≤3.0 mmol/L despite potassium supplements, Day 28): 4.1 mmol/L
- plasma potassium concentration, mean ([1]; baseline ≤3.0 mmol/L despite potassium supplements, Day 42): 4.2 mmol/L
- plasma potassium concentration, mean ([1]; baseline ≤3.0 mmol/L despite potassium supplements, Day 56): 4.0 mmol/L
- plasma potassium concentration, mean ([1]; baseline ≤3.0 mmol/L despite potassium supplements, Day 70 (placebo withdrawal)): 3.8 mmol/L
- effect on plasma potassium concentration ([1]; each dose arm, sustained over active treatment period): rapid and significant (p<0.001) increase in plasma potassium concentrations
- plasma potassium concentration, mean ([1]; in presence of potassium supplements, Day 1 (baseline)): 3.3 mmol/L
- plasma potassium concentration, mean ([1]; in presence of potassium supplements, Day 14): 4.1 mmol/L
- plasma potassium concentration, mean ([1]; in presence of potassium supplements, Day 28): 4.0 mmol/L
- plasma potassium concentration, mean ([1]; in presence of potassium supplements, Day 42): 4.1 mmol/L
- plasma potassium concentration, mean ([1]; in presence of potassium supplements, Day 56): 4.1 mmol/L
- plasma potassium concentration, mean ([1]; in presence of potassium supplements, Day 70 (placebo withdrawal)): 3.8 mmol/L
- plasma aldosterone concentration, mean ([2]; baseline aldosterone 400-600 pmol/L, 4 mg QD, Day 1 (baseline)): 433 pmol/L
- plasma aldosterone concentration, mean ([2]; baseline aldosterone 400-600 pmol/L, 4 mg QD, Day 14): 155 pmol/L
- plasma aldosterone concentration, mean ([2]; baseline aldosterone 400-600 pmol/L, 4 mg QD, Day 28): 100 pmol/L
- plasma aldosterone concentration, mean ([2]; baseline aldosterone 400-600 pmol/L, 4 mg QD, Day 42): 117 pmol/L
- plasma aldosterone concentration, mean ([2]; baseline aldosterone 400-600 pmol/L, 4 mg QD, Day 56): 141 pmol/L
- plasma aldosterone concentration, mean ([2]; baseline aldosterone 400-600 pmol/L, 4 mg QD, Day 70 (placebo withdrawal)): 425 pmol/L
- plasma aldosterone concentration, mean ([2]; baseline aldosterone 400-600 pmol/L, 8 mg QD, Day 1 (baseline)): 404 pmol/L
- plasma aldosterone concentration, mean ([2]; baseline aldosterone 400-600 pmol/L, 8 mg QD, Day 14): 70 pmol/L
- plasma aldosterone concentration, mean ([2]; baseline aldosterone 400-600 pmol/L, 8 mg QD, Day 28): 70 pmol/L
- plasma aldosterone concentration, mean ([2]; baseline aldosterone 400-600 pmol/L, 8 mg QD, Day 42): 47 pmol/L
- plasma aldosterone concentration, mean ([2]; baseline aldosterone 400-600 pmol/L, 8 mg QD, Day 56): 58 pmol/L
- plasma aldosterone concentration, mean ([2]; baseline aldosterone 400-600 pmol/L, 8 mg QD, Day 70 (placebo withdrawal)): 300 pmol/L
- plasma aldosterone concentration, mean ([2]; baseline aldosterone 400-600 pmol/L, 12 mg QD, Day 1 (baseline)): 431 pmol/L
- plasma aldosterone concentration, mean ([2]; baseline aldosterone 400-600 pmol/L, 12 mg QD, Day 14): 63 pmol/L
- plasma aldosterone concentration, mean ([2]; baseline aldosterone 400-600 pmol/L, 12 mg QD, Day 28): 132 pmol/L
- plasma aldosterone concentration, mean ([2]; baseline aldosterone 400-600 pmol/L, 12 mg QD, Day 42): 142 pmol/L
- plasma aldosterone concentration, mean ([2]; baseline aldosterone 400-600 pmol/L, 12 mg QD, Day 56): 61 pmol/L
- plasma aldosterone concentration, mean ([2]; baseline aldosterone 400-600 pmol/L, 12 mg QD, Day 70 (placebo withdrawal)): 297 pmol/L
- plasma aldosterone concentration, mean ([2]; baseline aldosterone 600-1000 pmol/L, 4 mg QD, Day 1 (baseline)): 728 pmol/L
- plasma aldosterone concentration, mean ([2]; baseline aldosterone 600-1000 pmol/L, 4 mg QD, Day 14): 186 pmol/L
- plasma aldosterone concentration, mean ([2]; baseline aldosterone 600-1000 pmol/L, 4 mg QD, Day 28): 248 pmol/L
- plasma aldosterone concentration, mean ([2]; baseline aldosterone 600-1000 pmol/L, 4 mg QD, Day 42): 114 pmol/L
- plasma aldosterone concentration, mean ([2]; baseline aldosterone 600-1000 pmol/L, 4 mg QD, Day 56): 250 pmol/L
- plasma aldosterone concentration, mean ([2]; baseline aldosterone 600-1000 pmol/L, 4 mg QD, Day 70 (placebo withdrawal)): 325 pmol/L
- plasma aldosterone concentration, mean ([2]; baseline aldosterone 600-1000 pmol/L, 8 mg QD, Day 1 (baseline)): 805 pmol/L
- plasma aldosterone concentration, mean ([2]; baseline aldosterone 600-1000 pmol/L, 8 mg QD, Day 14): 83 pmol/L
- plasma aldosterone concentration, mean ([2]; baseline aldosterone 600-1000 pmol/L, 8 mg QD, Day 28): 120 pmol/L
- plasma aldosterone concentration, mean ([2]; baseline aldosterone 600-1000 pmol/L, 8 mg QD, Day 42): 123 pmol/L
- plasma aldosterone concentration, mean ([2]; baseline aldosterone 600-1000 pmol/L, 8 mg QD, Day 56): 131 pmol/L
- plasma aldosterone concentration, mean ([2]; baseline aldosterone 600-1000 pmol/L, 8 mg QD, Day 70 (placebo withdrawal)): 423 pmol/L
- plasma aldosterone concentration, mean ([2]; baseline aldosterone 600-1000 pmol/L, 12 mg QD, Day 1 (baseline)): 912 pmol/L
- plasma aldosterone concentration, mean ([2]; baseline aldosterone 600-1000 pmol/L, 12 mg QD, Day 14): 123 pmol/L
- plasma aldosterone concentration, mean ([2]; baseline aldosterone 600-1000 pmol/L, 12 mg QD, Day 28): 104 pmol/L
- plasma aldosterone concentration, mean ([2]; baseline aldosterone 600-1000 pmol/L, 12 mg QD, Day 42): 85 pmol/L
- plasma aldosterone concentration, mean ([2]; baseline aldosterone 600-1000 pmol/L, 12 mg QD, Day 56): 82 pmol/L
- plasma aldosterone concentration, mean ([2]; baseline aldosterone 600-1000 pmol/L, 12 mg QD, Day 70 (placebo withdrawal)): 466 pmol/L
- plasma aldosterone concentration, mean ([2]; baseline aldosterone 1000-2500 pmol/L, 4 mg QD, Day 1 (baseline)): 2005 pmol/L
- plasma aldosterone concentration, mean ([2]; baseline aldosterone 1000-2500 pmol/L, 4 mg QD, Day 14): 816 pmol/L
- plasma aldosterone concentration, mean ([2]; baseline aldosterone 1000-2500 pmol/L, 4 mg QD, Day 28): 531 pmol/L
- plasma aldosterone concentration, mean ([2]; baseline aldosterone 1000-2500 pmol/L, 4 mg QD, Day 42): 629 pmol/L
- plasma aldosterone concentration, mean ([2]; baseline aldosterone 1000-2500 pmol/L, 4 mg QD, Day 56): 589 pmol/L
- plasma aldosterone concentration, mean ([2]; baseline aldosterone 1000-2500 pmol/L, 4 mg QD, Day 70 (placebo withdrawal)): 1393 pmol/L
- plasma aldosterone concentration, mean ([2]; baseline aldosterone 1000-2500 pmol/L, 8 mg QD, Day 1 (baseline)): 1080 pmol/L
- plasma aldosterone concentration, mean ([2]; baseline aldosterone 1000-2500 pmol/L, 8 mg QD, Day 14): 27 pmol/L
- plasma aldosterone concentration, mean ([2]; baseline aldosterone 1000-2500 pmol/L, 8 mg QD, Day 28): 57 pmol/L
- plasma aldosterone concentration, mean ([2]; baseline aldosterone 1000-2500 pmol/L, 8 mg QD, Day 42): 27 pmol/L
- plasma aldosterone concentration, mean ([2]; baseline aldosterone 1000-2500 pmol/L, 8 mg QD, Day 56): 27 pmol/L
- plasma aldosterone concentration, mean ([2]; baseline aldosterone 1000-2500 pmol/L, 8 mg QD, Day 70 (placebo withdrawal)): 395 pmol/L
- plasma aldosterone concentration, mean ([2]; baseline aldosterone 1000-2500 pmol/L, 12 mg QD, Day 1 (baseline)): 1410 pmol/L
- plasma aldosterone concentration, mean ([2]; baseline aldosterone 1000-2500 pmol/L, 12 mg QD, Day 14): 111 pmol/L
- plasma aldosterone concentration, mean ([2]; baseline aldosterone 1000-2500 pmol/L, 12 mg QD, Day 28): 74 pmol/L
- plasma aldosterone concentration, mean ([2]; baseline aldosterone 1000-2500 pmol/L, 12 mg QD, Day 42): 71 pmol/L
- plasma aldosterone concentration, mean ([2]; baseline aldosterone 1000-2500 pmol/L, 12 mg QD, Day 56): 349 pmol/L
- plasma aldosterone concentration, mean ([2]; baseline aldosterone 1000-2500 pmol/L, 12 mg QD, Day 70 (placebo withdrawal)): 1264 pmol/L
